According to patent US20240041042A1, “1-(PYRIDYL)-5-AZINYLPYRAZOLE DERIVATIVES, AND THEIR USE FOR CONTROL OF UNDESIRED PLANT GROWTH” (Bayer Aktiengesellschaft, priority 2020, published 2024):

Legend:
Type in all cases: in vivo
Viola tricolor (VIOTR) [1] = assay: Post-emergence herbicidal action against VIOTR
How it was run: (§1)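 Rates were 320 g/ha or below, applied as aqueous WP/EC spray with 0.5% additive (600 l/ha) onto one-leaf-stage plants. About 3 weeks later in the greenhouse, damage was scored visually against untreated plants on a 0–100% scale, where 100% means plants died.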

[2] = tested on: Matricaria inodora (MATIN); assay: Post-emergence herbicidal action against MATIN
Protocol: Seeds of monocotyledonous and dicotyledonous weeds and crop plants are placed in sandy loam in plastic or organic planting pots, covered with soil and cultivated in a greenhouse under controlled growth conditions. 2 to 3 weeks after sowing, the test plants are treated at the one-leaf stage. The compounds of the invention, formulated in the form of wettable powders (WP) or as emulsion concentrates (EC), are then sprayed onto the green parts of the plants as aqueous suspension or emulsion with addition of 0.5% additive at a water application rate of 600 l/ha (converted). After the test plants have been kept in the greenhouse under optimum growth conditions for about 3 weeks, the activity of the preparations is rated visually in comparison to untreated controls. For example, 100% activity=the plants have died, 0% activity=like control plants.
Tables B1 to B13 below show the effects of selected compounds of the general formula (I) according to Table 1 on various harmful plants and at an application rate corresponding to 320 g/ha or lower, which were obtained by the experimental procedure mentioned above. The appendices “a”, “b” and “c” give differentiation by dosage used with otherwise the same harmful plants tested.

Lolium rigidum (LOLRI) [3] = assay: Post-emergence herbicidal action against LOLRI
How it was run: as §1

Viola tricolor (VIOTR) [4] = assay: Pre-emergence herbicidal action against VIOTR
How it was run: (§2)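 Pre-emergence soil-surface spray of compound, formulated as wettable powder or emulsion concentrate, in aqueous suspension or emulsion with 0.5% additive (600 l/ha; rate 320 g/ha or less). Activity rated visually after roughly 3 weeks in the greenhouse as a percentage of untreated controls, 0% meaning no difference.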

[5] = tested on: Amaranthus retroflexus (AMARE); assay: Post-emergence herbicidal action against AMARE
How it was run: as §1

[6] = tested on: Polygonum convolvulus (POLCO); assay: Post-emergence herbicidal action against POLCO
How it was run: as §1

Setaria viridis (SETVI) [7] = assay: Post-emergence herbicidal action against SETVI
How it was run: as §1

[8] = tested on: Verconica persica (VERPE); assay: Pre-emergence herbicidal action against VERPE
How it was run: as §2

Avena fatua (AVEFA) [9] = assay: Post-emergence herbicidal action against AVEFA; details: visual rating about 3 weeks after treatment
How it was run: as §1

[10] = tested on: Pharbitis purpurea (PHBPU); assay: Post-emergence herbicidal action against PHBPU; details: dosage 320 g/ha
How it was run: as §1

[11] = tested on: Verconica persica (VERPE); assay: Post-emergence herbicidal action against VERPE
How it was run: as §1

Avena fatua (AVEFA) [12] = assay: Pre-emergence herbicidal action against AVEFA; details: visual scoring after about 3 weeks vs untreated controls
How it was run: as §2

[13] = tested on: Matricaria inodora (MATIN); assay: Pre-emergence herbicidal action against MATIN; details: dosage 320 g/ha
How it was run: as §2

[14] = tested on: Pharbitis purpurea (PHBPU); assay: Pre-emergence herbicidal action against PHBPU
How it was run: as §2

[15] = tested on: Amaranthus retroflexus (AMARE); assay: Pre-emergence herbicidal action against AMARE; details: visual scoring after about 3 weeks vs untreated controls
How it was run: as §2

[16] = tested on: Polygonum convolvulus (POLCO); assay: Pre-emergence herbicidal action against POLCO
How it was run: as §2

[17] = tested on: Alopecurus myosuroides (ALOMY); assay: Post-emergence herbicidal action against ALOMY; details: visual rating about 3 weeks after treatment vs untreated controls (100% = plants have died, 0% = like control plants)
How it was run: as §1

[18] = tested on: Alopecurus myosuroides (ALOMY); assay: Pre-emergence herbicidal action against ALOMY; details: scored visually after about 3 weeks, 100% = plants have died
How it was run: as §2

[19] = tested on: Echinochloa crus-galli (ECHCG); assay: Pre-emergence herbicidal action against ECHCG
How it was run: as §2

[20] = tested on: Echinochloa crus-galli (ECHCG); assay: Post-emergence herbicidal action against ECHCG
How it was run: as §1

Lolium rigidum (LOLRI) [21] = assay: Pre-emergence herbicidal action against LOLRI
How it was run: as §2

Setaria viridis (SETVI) [22] = assay: Pre-emergence herbicidal action against SETVI
How it was run: as §2

[23] = tested on: Abutilon theophrasti (ABUTH); assay: Post-emergence herbicidal action against ABUTH; details: visual rating about 3 weeks after treatment vs untreated controls (100% = plants have died, 0% = like control plants)
How it was run: as §1

Oryza sativa (ORYSA) = details: crop plant compatibility, 80 g/ha, effect in comparison to untreated controls
How it was run: (§3)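 Visual rating (% effect vs. untreated plants; 100% = plant death) made about 3 weeks after treatment. Plants had been sprayed at one-leaf stage, 2–3 weeks post-sowing, with aqueous WP/EC preparations containing 0.5% additive, 600 l/ha water volume; a, b, c mark dose levels.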

Zea mays (ZEAMX) = details: crop plant compatibility, 80 g/ha, effect vs untreated controls
How it was run: as §3

[24] = 80 g/ha, visual rating about 3 weeks after treatment vs untreated controls (100% = plants have died, 0% = like control plants)
[25] = 320 g/ha, visual rating about 3 weeks after treatment

Compound | Post-emergence action against MATIN in % ([2]; dosage 320 g/ha) [%] | Post-emergence action against LOLRI in % (Lolium rigidum (LOLRI) [3]; dosage 320 g/ha) [%] | Pre-emergence action against VIOTR in % (Viola tricolor (VIOTR) [4]; 320 g/ha, Viola tricolor) [%] | Post-emergence action against AMARE in % [5, 24] [%] | Post-emergence action against AMARE in % [5, 25] [%] | Post-emergence action against POLCO in % ([6]; dosage 80 g/ha) [%] | Post-emergence action against POLCO in % ([6]; dosage 320 g/ha) [%] | Post-emergence action against SETVI in % (Setaria viridis (SETVI) [7]; dosage 80 g/ha) [%] | Post-emergence action against SETVI in % (Setaria viridis (SETVI) [7]; dosage 320 g/ha) [%] | Pre-emergence action against VERPE in % ([8]; dosage 320 g/ha) [%] | Post-emergence action against AVEFA in % (Avena fatua (AVEFA) [9]; 80 g/ha) [%] | Post-emergence action against AVEFA in % (Avena fatua (AVEFA) [9]; 320 g/ha) [%] | Post-emergence action against PHBPU in % [10] [%] | Post-emergence action against VERPE in % ([11]; 320 g/ha, VERPE) [%] | Pre-emergence action against AVEFA in % (Avena fatua (AVEFA) [12]; 320 g/ha) [%] | Pre-emergence action against MATIN in % [13] [%] | Pre-emergence action against PHBPU in % ([14]; dosage 320 g/ha) [%] | Pre-emergence action against AMARE in % ([15]; 80 g/ha) [%] | Pre-emergence action against AMARE in % ([15]; 320 g/ha) [%] | Pre-emergence action against POLCO in % ([16]; dosage 320 g/ha) [%] | other results
COC(=O)COc1nn(-c2ncccc2F)c(-c2ccc(F)nc2)c1C1CC1 [Example I-42] | 90 | 100 | 100 | 90 | 90 | 80 | 90 | 90 | 90 | 100 | 100 | 100 | 90 | 90 | 100 | 100 | 90 | 90 | 100 | 90 | Post-emergence action against VIOTR in % (Viola tricolor (VIOTR) [1]; 80 g/ha): 90%; Post-emergence action against VIOTR in % (Viola tricolor (VIOTR) [1]; 320 g/ha): 90%; Post-emergence action against MATIN in % ([2]; dosage 80 g/ha): 80%; Post-emergence action against LOLRI in % (Lolium rigidum (LOLRI) [3]; dosage 80 g/ha): 100%; Pre-emergence action against VIOTR in % (Viola tricolor (VIOTR) [4]; dosage 80 g/ha): 100%; Post-emergence action against VERPE in % ([11]; dosage 80 g/ha): 90%; Post-emergence action against ALOMY in % ([17]; 80 g/ha): 100%; Post-emergence action against ALOMY in % ([17]; 320 g/ha): 100%; Pre-emergence action against ALOMY ([18]; 80 g/ha): 100%; Pre-emergence action against ALOMY ([18]; 320 g/ha): 100%; Pre-emergence action against ECHCG in % ([19]; dosage 80 g/ha): 100%; Pre-emergence action against ECHCG in % ([19]; dosage 320 g/ha): 100%; Post-emergence action against ECHCG in % ([20]; dosage 80 g/ha): 90%; Post-emergence action against ECHCG in % ([20]; dosage 320 g/ha): 90%; Pre-emergence action against LOLRI in % (Lolium rigidum (LOLRI) [21]; dosage 320 g/ha): 100%; Pre-emergence action against SETVI in % (Setaria viridis (SETVI) [22]; dosage 80 g/ha): 100%; Pre-emergence action against SETVI in % (Setaria viridis (SETVI) [22]; dosage 320 g/ha): 100%; Post-emergence action against ABUTH in % ([23]; 80 g/ha): 90%; Post-emergence action against ABUTH in % ([23]; 320 g/ha): 90%
CCOC(=O)COc1nn(-c2ncccc2C)c(-c2ccc(F)nc2)c1Br [Example I-321] | 80 | 100 | 100 | 80 | 80 | 80 | 90 | 90 | 90 | 100 | 90 | 90 | 90 | 90 | 90 | 100 | 90 | 100 | 100 | 100 | Post-emergence action against VIOTR in % (Viola tricolor (VIOTR) [1]; 80 g/ha): 80%; Post-emergence action against VIOTR in % (Viola tricolor (VIOTR) [1]; 320 g/ha): 80%; Post-emergence action against LOLRI in % (Lolium rigidum (LOLRI) [3]; dosage 80 g/ha): 100%; Pre-emergence action against VIOTR in % (Viola tricolor (VIOTR) [4]; dosage 80 g/ha): 90%; Post-emergence action against ORYSA in % (Oryza sativa (ORYSA)): 0%; Post-emergence action against ZEAMX in % (Zea mays (ZEAMX)): 0%; Pre-emergence action against PHBPU in % ([14]; dosage 80 g/ha): 80%; Pre-emergence action against POLCO in % ([16]; dosage 80 g/ha): 90%; Post-emergence action against ALOMY in % ([17]; 80 g/ha): 90%; Post-emergence action against ALOMY in % ([17]; 320 g/ha): 100%; Pre-emergence action against ALOMY ([18]; 320 g/ha): 100%; Pre-emergence action against ECHCG in % ([19]; dosage 80 g/ha): 100%; Pre-emergence action against ECHCG in % ([19]; dosage 320 g/ha): 100%; Post-emergence action against ECHCG in % ([20]; dosage 80 g/ha): 90%; Post-emergence action against ECHCG in % ([20]; dosage 320 g/ha): 90%; Pre-emergence action against LOLRI in % (Lolium rigidum (LOLRI) [21]; dosage 80 g/ha): 100%; Pre-emergence action against LOLRI in % (Lolium rigidum (LOLRI) [21]; dosage 320 g/ha): 100%; Pre-emergence action against SETVI in % (Setaria viridis (SETVI) [22]; dosage 320 g/ha): 100%
COC(=O)[C@H](C)NC(=O)COc1nn(-c2ccccn2)c(-c2ccc(F)nc2)c1Cl [Example I-87] | 80 | 80 | 80 | 80 | 80 | 80 | 80 | 80 | 80 | 90 | 80 | 90 | 90 | 90 | 90 | 90 | 90 | 90 | 100 | 90 | Post-emergence action against ORYSA in % (Oryza sativa (ORYSA)): 0%; Pre-emergence action against VERPE in % ([8]; dosage 80 g/ha): 80%; Post-emergence action against VERPE in % ([11]; dosage 80 g/ha): 80%; Pre-emergence action against AVEFA in % (Avena fatua (AVEFA) [12]; 80 g/ha): 80%; Pre-emergence action against POLCO in % ([16]; dosage 80 g/ha): 80%; Post-emergence action against ALOMY in % ([17]; 80 g/ha): 80%; Post-emergence action against ALOMY in % ([17]; 320 g/ha): 90%; Pre-emergence action against ALOMY ([18]; 80 g/ha): 90%; Pre-emergence action against ALOMY ([18]; 320 g/ha): 100%; Pre-emergence action against ECHCG in % ([19]; dosage 80 g/ha): 100%; Pre-emergence action against ECHCG in % ([19]; dosage 320 g/ha): 100%; Post-emergence action against ECHCG in % ([20]; dosage 320 g/ha): 80%; Pre-emergence action against LOLRI in % (Lolium rigidum (LOLRI) [21]; dosage 320 g/ha): 100%; Pre-emergence action against SETVI in % (Setaria viridis (SETVI) [22]; dosage 80 g/ha): 90%; Pre-emergence action against SETVI in % (Setaria viridis (SETVI) [22]; dosage 320 g/ha): 100%
